Data from patent publication US11980613B2, “Methods for reversing HIV latency using BAF complex modulating compounds” (priority 2018, dated 2024).

What was measured:
[1] = system: A549 cells; test: Viability assay A549; format: cell-based; settings: 72 h
Description: (§1) Cell culture: HepG2, A549 and HEK293 cells were propagated to 95% confluence in DMEM containing 10% FBS 1% Pen/Strep, 1% L-Glutamine. Cells were plated at 2000 per well in 40 μL media in white tissue culture treated 384-well plates and incubated at 5% CO2; 95% humidity, 37° C. for 24 hours. Compound (100 nL) was added to wells using a pin tool (CyBi Well) alongside 100 nL cytotoxic compounds, mitoxantrone (final concentration of 10 μM) as a positive control. The cells were incubated for 72 hours at 37° C., 95% humidity 5% CO2. Plates were removed from the incubator, equilibrated for 15 minutes to room temperature; and 20 μL 50% Promega CellTiterGlo (diluted 1:1 with PBS, pH 7.4) was added. The plates were read on Perkin-Elmer EnVision with standard luminescence settings for 0.1 sec per well.

[2] = system: wild type ESCs; test: Viability in wild type ESCs (CellTiter-Glo); format: cell-based, mouse; settings: up to 30 μM; 72 h
Description: FIG. 2: 12-membered macrolactams are inhibitors of BAF-mediated transcription. A. The EC50 was measured for the best screen hit BRD-K98645985 after 24 h compound treatment with the Bmi1-luciferase reporter cell line. Each concentration was dosed in triplicate. B. The fold change of the transcription of three BAF target genes was calculated using qRT-PCR after 18 h BRD-K98645985 treatment (30 μM) or Brg1 knockdown compared to untreated cells. C. Viability measurements in wild type ESCs were performed after 72 h of compound or DMSO treatment using CellTiter-Glo®. D. The structure activity relationship of the eight stereoisomers of BRD-K98645985 based on initial luciferase induction from the primary screen. E. The structure activity relationship of the 3618 macrolactam library members based on initial luciferase induction from the primary screen.
Cell culture: HepG2, A549 and HEK293 cells were propagated to 95% confluence in DMEM containing 10% FBS 1% Pen/Strep, 1% L-Glutamine. Cells were plated at 2000 per well in 40 μL media in white tissue culture treated 384-well plates and incubated at 5% CO2; 95% humidity, 37° C. for 24 hours. […] The plates were read on Perkin-Elmer EnVision with standard luminescence settings for 0.1 sec per well.

[3] = system: BAF target genes (Bmi1, Ring1, Fgf4); test: qRT-PCR of BAF target genes in ESCs; format: cell-based, mouse; settings: 30 μM of compound, 18 h
Description: 3. Compound Treatment: 10,000 cells in 30 μL ESC media were plated in white 384 well CellBind plates. The cells were cultured in a 37° C., 5% CO2 incubator for 24 h and 100 nL/well of 0.75 mM of positive control (Pubchem SID: 85814977) or 100 nL/well of 3.75 mM compound library (primary screen) was added via pin transfer into plates. There was no effect on assay readout at DMSO concentrations up to 0.5%. The cells were cultured in a 37° C., 5% CO2 incubator for 24 h for luciferase reporter assay and 18 h for qRT-PCR assay. 4. Luciferase assay: (PubChem AID 602393 primary, PubChem AID 651717 confirmatory.) The assay plates were removed from the incubator and equilibrates for 10 minutes to room temperature. Promega SteadyGlo® solution (10 μL/well) was added to each well of the assay plates. The assay plates were mixed at 1000 rpm for 15 seconds and then incubated for 10 minutes at room temperature. The luciferase levels were read on a Perkin Elmer Envision in Ultra Sensitive Luminescence mode. Signals remained stable up to 2 hours. 5. EqRT-PCR secondary screen (PubChem AID 743180, 743177, 743176) The qRTPCR screen was performed as published^54. In brief, 5,000 ES cells were plated on gelatin-coated 384-well tissue culture plates and cultured in a 37C, 5% CO2 incubator. 24 h later, hit compounds in 100 nL DMSO were treated at eight different doses. 18 h after compound treatment cells were washed two times with 100 μL PBS and all excess PBS was removed by centrifuging the plates upside down at 1000 rpm. The Ambion® Cells-to-Ct kit was used to generate cDNA. In brief, the cells were lysed in the plate in 10 μL lysis buffer containing DNase for 10 minutes and quenched with 1 μL lysis stop buffer. […] The fold increase in transcription was calculated using the ΔΔCT method^84. […]

[4] = system: Bmi1-luciferase reporter cell line; test: Bmi1-luciferase reporter assay (screen for inhibitors of BAF-mediated transcriptional repression); format: cell-based, mouse; settings: for activity in the Bmi1 luciferase reporter assays: grading in words
Description: Low passage mESCs from 129 mice (20 million, p10) were electroporated with 40 μg of a linearized construct consisting of 2 kb homology upstream of the Bmi1 locus, firefly luciferase at exon 1 of Bmi1 followed by loxP neo and a 6 kb 3′ homology arm with thymidine kinase outside the homology arms. The cells were plated on 10 gelatin treated plates (60 mm) of irradiated neo resistant MEFs and selected with G418 and ganciclovir for 5 days. 384 colonies were selected, trypsinized and replated in gelatin treated 24-well plates for expansion. The cells were split and DNA was isolated for digestions with EcoRI or BamHI. We confirmed the successful homologous recombination in 7 out 384 colonies using Southern blot analysis at both the 5′ (EcoRI) and 3′ (BamHI) end (see Table S2 of Marian et al., “Small Molecule Targeting of Specific BAF (mSWI/SNF) Complexes for HIV Latency Reversal,” Cell Chem. Biol. (Dec. 20, 2018) 25: 1443-1445). We deleted the neomycin cassette using transfected Cre recombinase and confirmed the excision at all clones using a second round of Southern blot analysis at the 3′ end (BamHI).
3. Compound Treatment: 10,000 cells in 30 μL ESC media were plated in white 384 well CellBind plates. The cells were cultured in a 37° C., 5% CO2 incubator for 24 h and 100 nL/well of 0.75 mM of positive control (Pubchem SID: 85814977) or 100 nL/well of 3.75 mM compound library (primary screen) was added via pin transfer into plates. There was no effect on assay readout at DMSO concentrations up to 0.5%. The cells were cultured in a 37° C., 5% CO2 incubator for 24 h for luciferase reporter assay and 18 h for qRT-PCR assay. 4. Luciferase assay: (PubChem AID 602393 primary, PubChem AID 651717 confirmatory.) The assay plates were removed from the incubator and equilibrates for 10 minutes to room temperature. Promega SteadyGlo® solution (10 μL/well) was added to each well of the assay plates. The assay plates were mixed at 1000 rpm for 15 seconds and then incubated for 10 minutes at room temperature. The luciferase levels were read on a Perkin Elmer Envision in Ultra Sensitive Luminescence mode. Signals remained stable up to 2 hours. 5. EqRT-PCR secondary screen (PubChem AID 743180, 743177, 743176) The qRTPCR screen was performed as published^54. In brief, 5,000 ES cells were plated on gelatin-coated 384-well tissue culture plates and cultured in a 37C, 5% CO2 incubator. 24 h later, hit compounds in 100 nL DMSO were treated at eight different doses. 18 h after compound treatment cells were washed two times with 100 μL PBS and all excess PBS was removed by centrifuging the plates upside down at 1000 rpm. The Ambion® Cells-to-Ct kit was used to generate cDNA. In brief, the cells were lysed in the plate in 10 μL lysis buffer containing DNase for 10 minutes and quenched with 1 μL lysis stop buffer. The lysate (2 μL) was added to 5 μL RT reaction buffer (2×), 2.5 μL nuclease-free water and 0.5 μL Reverse transcriptase (20×) and incubated at 37° C. for 60 minutes and 95° C. for 1 minute to generate 10 μL of cDNA. cDNA (1 μL) was used in each 5 μL qPCR reaction with Roche master mix and TaqMan probes (Applied Biosystems) for Bmi1-FAM (Mm00776122_gH), Ring1a-FAM (Mm01278940_m1/4331182), or Fgf4-FAM (Mm00438916_g1/4351372) alongside actin-VIC (4352341E) for a loading control. The qPCR was run accordingly: 95° C. for 10 minutes Then 55 cycles of: 95° C. for 10 seconds followed by 60° C. for 30 seconds. The fold increase in transcription was calculated using the ΔΔCT method^84. 6. Viability Assays (PubChem AID: 743188, 743189, 743190, 1053139, 1053140, 1053141)

[5] = system: HepG2 cells; test: Viability assay HepG2; format: cell-based; settings: 72 h
Description: as §1

[6] = system: latent provirus in J-Lat T-cell line; test: Cell line models of HIV-1 latency (J-Lat, GFP); format: cell-based; settings: higher concentrations than in primary cells; 48 h
Description: [drawing 27] i. BRD-K25923209: To Macrocycle 2141-039b (0.804 g, 1.550 mmol) dissolved in MeOH (Volume: 15.50 ml) was added tin(II) chloride dihydrate (3.50 g, 15.50 mmol). […] Upon completion, the reaction mixture was concentrated and the resulting residue was dissolved in EtOAc and washed with 2 M aq. KOH (2×). The combined aqueous layers were washed with EtOAc (4×). The resulting organic layers were washed with brine, saturated aqueous NaHCO3, water, and brine, dried over MgSO4, filtered, and concentrated. […] BRD-K80443127: A screwtop vial was charged with aniline (BRD-K25923209) (43.3 mg, 0.089 mmol) and CH2Cl2 (Volume: 886 μl, Density: 1.325 g/ml). Isopropyl chloroformate (115 μl, 0.115 mmol) and DIEA (46.4 μl, 0.266 mmol) were added dropwise and reaction stirred under ambient conditions for 1 h. […] BRD-K04244835: A 2.5 mL microwave vial was charged with aniline (BRD-K25923209) (40 mg, 0.082 mmol) and EtOH (Volume: 819 μl, Density: 0.81 g/ml). Squaramide (CRE-III-001) (20.75 mg, 0.098 mmol), DIEA (42.8 μl, 0.246 mmol), and DMAP (2.000 mg, 0.016 mmol) were added in sequence and the vial was sealed. […] 9. […] 10. […] 11.

[7] = system: HEK293T cells; test: Viability assay HEK293T; format: cell-based; settings: 72 h
Description: as §1

[8] = system: latent HIV-1 in CD4+ T cells from c-ART treated HIV-1 infected patients; test: HIV latency reversal from patient samples (cell associated HIV Pol mRNA); format: cell-based, human; settings: Patient 1 (one patient); single agents; 24 hours
Description: 23. HIV latency reversal from patient samples: All patients were older than 18 years, c-ART treated for at least 3 years, and their viral loads were below 50 copies/ml for more than 12 months with no blips in the past two years. CD4+ T cells from aviremic HIV+ patients were isolated as described previously^55 with minor modifications. Briefly, frozen PBMCs were cultured in RPMI medium over-night to recover. Then next day CD4+ T cells were isolated twice (enriched CD4+ T cells were subjected to a second round of CD4+ T cell enrichment) and left for 6 hrs to recover. Three million cells were treated with DMSO, 10 μM BRD-K80443127, 200 nM Prostratin, 10 μM BRD-K80443127 and 200 nM prostratin, and αCD3/CD28 magnetic beads (at cell:bead ration 1:1) as a positive control in triplicate. After 24 hours cells were lysed in TRIreagent (Sigma), total RNA was isolated with Total RNA Zol-Out (A&A Biotechnology) kit and cDNA was synthetized using random primers and Superscript II Reverse Transcriptase (Life Technologies). Detection of cellular associated pol RNA was performed as described previously (Pol: For […] (SEQ ID NO:15), Rev-[…] (SEQ ID NO: 16))^55. This study was conducted in accordance with the ethical principles of the Declaration of Helsinki. HIV-1 infected patient volunteers were informed and provided signed consent to participate in the study. The study protocol was approved by The Netherlands Medical Ethics Committee (MEC-2012-583). cDNA generated from control and 10 μM BRD-K80443127 treated samples was used to assess expression of BAF target genes biomarker genes-p21 and C-MYC.

[9] = system: latent HIV-1 infected T cells; test: HIV latency reversal activity of the thiophene hit; format: cell-based

With `CO[C@H]1CN(C)C(=O)c2cc(NC(=O)NC(C)C)ccc2OC[C@H](C)N(Cc2ccc(-c3ccccn3)cc2)C[C@@H]1C` [BRD-K98645985] the “toxicity to A549 cells” value [1] was “no toxicity”, the “toxicity to ESCs” value [2] was “no toxicity” and the “fold decrease in Fgf4” value [3] was 3.3 fold. For the same compound, the “fold increase in Bmi1” value [3] was 5 fold, the “fold increase in Ring1” value [3] was 2.6 fold and the “activity in the Bmi1 luciferase reporter assays” value [4] was “high activity”. For the same compound, the EC50 ([4]; re-evaluation of hit, 24 h compound treatment) was ~2370 nM, the “toxicity to HepG2 cells” value [5] was “no toxicity” and the “latency reversal (GFP)” value [6] was “concentration dependent latency reversal”. The “toxicity to HEK293T cells” value [7] was “no toxicity”.

`CO[C@H]1CN(C)C(=O)c2cc(NC(=O)NC(C)C)ccc2OC[C@H](C)N(Cc2ccccc2)C[C@@H]1C` [BRD-K13648511] was tested, and the “activity in the Bmi1 luciferase reporter assays” value [4] was “low/no activity”.

`CO[C@H]1CN(C)C(=O)c2cc(NC(=O)NC(C)C)ccc2OC[C@H](C)N(Cc2ccc(-c3cccnc3)cc2)C[C@@H]1C` [BRD-K17257309] was tested, and the “activity in the Bmi1 luciferase reporter assays” value [4] was “moderate activity”.

`CC(=O)O[C@@]12C[C@@H](C)[C@@]3(O)[C@@H](C=C(CO)C[C@]4(O)C(=O)C(C)=C[C@@H]34)[C@@H]1C2(C)C` [prostratin, reference compound] was tested, and the “cell associated HIV mRNA (Pol), response” value [8] was “responded”.

For `CCC(CC)Nc1c(Nc2ccc3c(c2)C(=O)N(C)C[C@H](OC)[C@@H](C)CN(Cc2ccc(-c4ccccn4)cc2)[C@@H](C)CO3)c(=O)c1=O` [BRD-K04244835], the “activity in the Bmi1 luciferase reporter assays” value [4] was “low/no activity”.

In the case of `C=CCNc1nc(NCc2cccc(OC)c2)c2sc(-c3ccccc3)cc2n1` [MLS003122856], the “HIV latency reversal activity” value [9] is reported as “moderate”.

In the case of `CO[C@H]1CN(C)C(=O)c2cc(N)ccc2OC[C@H](C)N(Cc2ccc(-c3ccccn3)cc2)C[C@@H]1C` [BRD-K25923209], the “activity in the Bmi1 luciferase reporter assays” value [4] is reported as “high activity”.
